Measured values reported in patent publication US20070172423A1, “Composition and method for modulating vasculogenesis for angiogenesis” (priority 1998, published 2007).

Tests used:
[1] = test system: protease in AG1523 medium processing full-length PDGF-C; experiment: Protease inhibitor analysis of PDGF-C processing by AG1523 medium; type: biochemical, human; conditions: AG1523 serum-free medium, 37° C. overnight, immunoblot
Description: To elucidate the mechanism of the proteolysis of PDGF-C a protease inhibitor analysis was conducted. Various protease inhibitors (see Table 1, source: Sigma) were pre-incubated with 0.9 ml of AG1523 serum-free medium at room temperature for 30 minutes, then incubated with 0.2 ml of recombinant full-length PDGF-C (Sf9 serum-free medium) at 37° C. overnight. TCA-precipitated proteins were subjected to SDS-page under reducing conditions and then immunoblotted. Recombinant PDGF-C was detected using an anti-His6 epitope monoclonal antibody (C-terminal) (InVitrogen).

hSMC [2] = experiment: Cell migration assay, hSMC; type: cell-based, human; conditions: wounded monolayer, 20 hours
Description: Cell migration assays were performed on growth arrested confluent HMVEC, BAEC or hSMC cells. Cell monolayers were wounded with a rubber policeman and washed with serum-free medium. Dishes were then incubated for 20 hours in serum-free medium containing VEGF165, PDGF-AA, (R&D Systems, Minneapolis USA) or PDGF-CC. Each assay included two dishes per condition and was repeated three times independently. Cells were photographed at 40× magnification, and migration percentage corresponding to the ratio between area of the cells and the total area of the wound (Biocom visiol@b 2000 version 4.52, San Diego). […] After 7 days, viable cells were counted using the cell Titer-glo luminescent cell viability assay. […] Two days later, cell numbers were counted and proliferation percentage calculated, using cells cultured in medium containing 10% serum as control. […] Aortic rings were analysed at day 9 of culturing. […]
The mitogenic and chemotactic effect of PDGF-CC was then tested on SMCs and perivascular fibroblast cells, and the effect of PDGF-CC was compared to that of VEGF and PDGF-AA in both cultured cells and the aortic ring assay (Blacher et al., Angiogenesis, 2001 4:133-42). […] In the aortic ring assay, we quantified the growth and emigration of perivascular fibroblasts from the intact vessel using computer-assisted image analysis after treatment with VEGF and different PDGFs at different concentrations. […]

HMVEC = HMVEC proliferation assay; type: cell-based, human; conditions: 50 ng/ml, 7 days
Description: (§1) Cell migration assays were performed on growth arrested confluent HMVEC, BAEC or hSMC cells. Cell monolayers were wounded with a rubber policeman and washed with serum-free medium. Dishes were then incubated for 20 hours in serum-free medium containing VEGF165, PDGF-AA, (R&D Systems, Minneapolis USA) or PDGF-CC. Each assay included two dishes per condition and was repeated three times independently. Cells were photographed at 40× magnification, and migration percentage corresponding to the ratio between area of the cells and the total area of the wound (Biocom visiol@b 2000 version 4.52, San Diego). For HMVEC proliferation assay, cells were seeded in 96-well plates (5 wells per condition), and incubated with VEGF, PDGF-AA, or PDGF-CC (50 ng/ml) after serum starvation. After 7 days, viable cells were counted using the cell Titer-glo luminescent cell viability assay. For NIH-3T3 and hSMC proliferation assay, cells cultured in 96-well plates were serum-starved overnight, followed by treatment with growth factors at different concentrations. Two days later, cell numbers were counted and proliferation percentage calculated, using cells cultured in medium containing 10% serum as control. Aortic ring assay was performed as described 51. […] Aortic rings were analysed at day 9 of culturing. […]

hSMC [3] = experiment: hSMC proliferation assay; type: cell-based, human; conditions: two days, different concentrations
Description: as §1

[4] = test system: bovine aorta endothelial cells (BAEC); experiment: Cell migration assay, BAEC; type: cell-based; conditions: wounded monolayer, 20 hours, serum-free medium
Description: as §1

aortic rings = experiment: Aortic ring assay; type: cell-based; conditions: for number of sprouting microvessels: day 9 of culturing, versus control
Description: Cell migration assays were performed on growth arrested confluent HMVEC, BAEC or hSMC cells. Cell monolayers were wounded with a rubber policeman and washed with serum-free medium. Dishes were then incubated for 20 hours in serum-free medium containing VEGF165, PDGF-AA, (R&D Systems, Minneapolis USA) or PDGF-CC. Each assay included two dishes per condition and was repeated three times independently. Cells were photographed at 40× magnification, and migration percentage corresponding to the ratio between area of the cells and the total area of the wound (Biocom visiol@b 2000 version 4.52, San Diego). For HMVEC proliferation assay, cells were seeded in 96-well plates (5 wells per condition), and incubated with VEGF, PDGF-AA, or PDGF-CC (50 ng/ml) after serum starvation. After 7 days, viable cells were counted using the cell Titer-glo luminescent cell viability assay. For NIH-3T3 and hSMC proliferation assay, cells cultured in 96-well plates were serum-starved overnight, followed by treatment with growth factors at different concentrations. Two days later, cell numbers were counted and proliferation percentage calculated, using cells cultured in medium containing 10% serum as control. Aortic ring assay was performed as described 51. Briefly, one-millimeter long aortic rings were embedded in gels of rat tail interstitial collagen and cultured at 37° C., supplemented with different growth factors (50 ng/ml). Aortic rings were analysed at day 9 of culturing. Experiments included three explants per condition and were repeated at least twice. Aortic rings were photographed at 25× magnification.
Although PDGFR-α is expressed on endothelial cells (Edelberg et al., Journal of Clinical Investigation, 1998 102:837-43; Smits et al., Growth Factors, 1989 2:1-8; Bar et al., Endocrinology, 1989 124:1841-8; Beitz et al., Proc Natl Acad Sci USA, 1991 88:2021-5; Marx et al., J Clin Invest, 1994 93:131-9; Shinbrot et al., Dev. Dyn., 1994 199:169-175), little is known about the functional consequence of PDGFR-α signaling in these cells. […] We also tested the effect of PDGF-CC on cultured aortic rings, as this assay allows assessment of the outgrowth of microvessels from an intact vessel in vitro (Blacher et al., Angiogenesis, 2001 4:133-42). Results are graphically represented as the number of microvessels and the distance over which they grew out from the aortic ring. Each experiment included three explants per condition and was repeated at least twice. At day 9 after culturing, microvessels and the distance of their outgrowth were quantified and evaluated using Student's t test. In baseline conditions, only a small number of microvessels sprouted from the aortic rings—most of them over very short distances (0.25 mm from the aortic ring)—and only a small fraction (<5%) growing out over longer distances (>0.5 mm from the aortic ring, FIG. 41a). VEGF increased not only the number of sprouting microvessels (P<0.001 at all concentrations versus control), but also the distance over which they grew out (P<0.05 at all concentrations versus control; FIG. 41b,f). At 30 ng/ml, PDGF-CC increased the number of microvessels (P<0.001 versus control, FIG. 41e,g) and increased the distance of vessel outgrowth at 5 ng/ml (P<0.01 versus control, FIG. 41g). […] A similar bell-shaped dose-response relationship has been documented for other members of the VEGF/PDGF-superfamily (Jin et al., J Mol Neurosci, 2000 14:197-203). PDGF-AA, however, had no effect on the number of microvessels, although it increased the distance of vessel outgrowth at 5 ng/ml (P<0.01 versus control, FIG. 41h). Thus, PDGF-CC mobilized EC migration in cultured cells and promoted microvessel sprouting in the aortic ring assay.
The mitogenic and chemotactic effect of PDGF-CC was then tested on SMCs and perivascular fibroblast cells, and the effect of PDGF-CC was compared to that of VEGF and PDGF-AA in both cultured cells and the aortic ring assay (Blacher et al., Angiogenesis, 2001 4:133-42). […]

NIH-3T3 fibroblast cells = experiment: NIH-3T3 proliferation assay; type: cell-based; conditions: two days, different concentrations
Description: as §1

[5] = molecular target: T1, human PDGF receptor alpha (Homo sapiens, UniProt P16234); experiment: Competition with 125I-PDGF-BB for binding to PAE-1 cells expressing PDGF alpha-receptor; conditions: 5 ng/ml 125I-PDGF-BB tracer, on ice 90 minutes
T1 construct: expressed in transfected cells
Description: Next, full length and truncated PDGF-C were tested for their capacity to bind to human PDGF receptors alpha and beta by analyzing their abilities to compete with PDGF-BB for binding to PDGF receptors. The binding experiments were performed on porcine aortic endothelial-1 (PAE-1) cells stably expressing the human PDGF receptors alpha and beta (Eriksson et al., EMBO J, 1992, 11, 543-550). Binding experiments were performed essentially as in Heldin et al. (EMBO J, 1988, 7:1387-1393). Different concentrations of human full-length and truncated PDGF-C, or human PDGF-BB were mixed with 5 ng/ml of ^125I-PDGF-BB in binding buffer (PBS containing 1 mg/ml of bovine serum albumin). Aliquots were incubated with the receptor expressing PAE-1 cells plated in 24-well culture dishes on ice for 90 minutes. After three washes with binding buffer, cell-bound 125]-PDGF-BB was extracted by lysis of cells in 20 mM Tris-HCl, pH 7.5, 10% glycerol, 1% Triton X-100. The amount of cell bound radioactivity was determined in a gamma-counter. A standard curve for the binding of ^125I-labeled PDGF BB homodimers to PAE-1 cells expressing PDGF alpha-receptor is shown in FIG. 18.

[6] = test system: human microvascular endothelial cells (HMVEC); experiment: Cell migration assay, HMVEC; type: cell-based; conditions: wounded monolayer, 20 hours, serum-free medium
Description: as §1

[7] = test system: human bone marrow-derived AC133+CD34+ cells; experiment: Human bone marrow cell adherence and differentiation assay; type: cell-based; conditions: 50 ng/ml
Description: Enriched human BM derived AC133+CD34+ cells (Clonetics) at 10^5/ml were cultured for 3 days in HPGM (Clonetics) in a 6-well plate (Becton Dickinson). Cells were then seeded in collagen coated 12-well plates in EBM (Clonetics) medium containing 4% FCS and VEGF165 (R&D Systems) or PDGF-CC (50 ng/ml each). Growth factors were added every two days and media were refreshed at 75% every four days. For adherence assay, 2.5×10^4 of non-adherent cells/ml were cultured in the same condition on chamber slides coated with collagen, or in 96-well plate coated with 0.3% gelatin in PBS. Cells were then washed three times with PBS, fixed and stained with May-Grünwald Giemsa (Sigma) after two weeks of culture on chamber slides (Becton Dickinson). The number of viable cells was estimated by ATP quantification using cellTiter-glo luminescent cell viability assay (Promega) according to the manufacturer's instructions. For cell surface marker staining, cells (2×10^4/well) cultured on collagen-coated culture slides for two or four weeks were fixed (45 min, 25° C.) and permeabilized (45 min, 25° C.) using a Intrastain Kit (DAKO), and then labeled with CD31-FITC (Becton Dickinson), CD144-FITC (Pharmingen), CD34-FITC (Becton Dickinson) or SMC-Actin CY3 (Sigma). Single or double-labeled cells were analyzed using laser confocal immunofluorescence microscopy.
Upon stimulation by growth factors or cytokines, bone marrow stem/progenitor cells can differentiate into ECs and SMCs and thereby contribute to angio/arteriogenesis (Orlic et al., Nature, 2001 410:701-5; Kawamoto et al., Circulation, 2001 103:634-7; Asahara et al., Circ Res, 1999 85:221-8). The potential role of PDGF-CC in the differentiation of bone marrow progenitors into vascular cells has, however, not been investigated thus far. We therefore cultured human bone marrow-derived AC133^+CD34^+ cells—a population enriched for stem/progenitor cells (Miraglia et al., Blood, 1997 90:5013-21; Yu et al., J Biol Chem, 2002 277:20711-6; Donnelly et al., Leuk Lymphoma, 2001 40:221-34)—and stimulated them with PDGF-CC, using VEGF as a control (50 ng/ml each).

T1 sequence (P16234 24-1089): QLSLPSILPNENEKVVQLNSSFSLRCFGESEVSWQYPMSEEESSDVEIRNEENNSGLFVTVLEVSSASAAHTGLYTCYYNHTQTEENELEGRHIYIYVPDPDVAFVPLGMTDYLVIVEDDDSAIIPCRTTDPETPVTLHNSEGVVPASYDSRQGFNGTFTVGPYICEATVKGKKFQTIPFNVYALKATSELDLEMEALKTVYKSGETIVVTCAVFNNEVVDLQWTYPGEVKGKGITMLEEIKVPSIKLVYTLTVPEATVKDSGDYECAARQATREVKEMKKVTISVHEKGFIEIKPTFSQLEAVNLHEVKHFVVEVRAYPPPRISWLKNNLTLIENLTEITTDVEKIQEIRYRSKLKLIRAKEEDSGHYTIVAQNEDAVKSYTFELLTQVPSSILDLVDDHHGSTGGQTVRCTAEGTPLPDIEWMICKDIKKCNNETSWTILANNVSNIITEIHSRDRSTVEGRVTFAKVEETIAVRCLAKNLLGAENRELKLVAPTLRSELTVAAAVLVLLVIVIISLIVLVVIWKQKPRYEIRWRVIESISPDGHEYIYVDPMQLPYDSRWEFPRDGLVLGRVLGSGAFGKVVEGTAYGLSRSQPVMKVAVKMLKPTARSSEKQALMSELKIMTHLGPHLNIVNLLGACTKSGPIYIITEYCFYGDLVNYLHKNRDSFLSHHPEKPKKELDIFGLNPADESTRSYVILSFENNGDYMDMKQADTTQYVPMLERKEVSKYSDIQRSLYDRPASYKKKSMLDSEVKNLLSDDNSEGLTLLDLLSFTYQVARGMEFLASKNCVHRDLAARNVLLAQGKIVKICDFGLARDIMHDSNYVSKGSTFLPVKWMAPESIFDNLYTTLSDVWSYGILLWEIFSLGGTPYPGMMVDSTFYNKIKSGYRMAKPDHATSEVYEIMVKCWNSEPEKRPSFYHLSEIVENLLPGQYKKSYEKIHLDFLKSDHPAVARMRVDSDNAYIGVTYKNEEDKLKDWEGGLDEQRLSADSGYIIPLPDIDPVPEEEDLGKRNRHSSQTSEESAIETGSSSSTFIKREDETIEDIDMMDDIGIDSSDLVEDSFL

Aprotinin
inhibition of proteolytic processing of full-length PDGF-C [1]: capacity to inhibit

PDGF-AA: PDGF A-chain homodimer (R&D Systems), PDGFR-α ligand used as control
hSMC migration (hSMC [2]): stimulated | EC proliferation (HMVEC): no effect | proliferation of cultured hSMC cells (hSMC [3]): stimulated | migration of BAEC [4]: no effect | distance of vessel outgrowth (aortic rings; 5 ng/ml, day 9, versus control): increased | number and emigration of perivascular fibroblast-like cells (aortic rings; day 9, versus control): intermediate effect | number of sprouting microvessels (aortic rings): no effect | proliferation of cultured NIH-3T3 fibroblast cells (NIH-3T3 fibroblast cells): stimulated

PDGF-BB: human PDGF B-chain homodimer, unlabeled competitor and 125I tracer [reference compound]
competition for binding to the PDGF alpha-receptor [5]: competed efficiently

VEGF
hSMC migration (hSMC [2]): no effect | EC proliferation (HMVEC): highly stimulated | migration of HMVECs [6]: stimulated | distance over which microvessels grew out (aortic rings; all concentrations, day 9, versus control): increased | number and emigration of perivascular fibroblast-like cells (aortic rings; day 9, versus control): in effective | number of sprouting microvessels (aortic rings): increased | SMA expression ([7]; four weeks): remained SMA negative | expression of CD144 and CD31 ([7]; four weeks): still CD144 and CD31 positive | adherence of AC133+CD34+ cells ([7]; two weeks of stimulation): enhanced | expression of EC surface markers CD144 (VE-cadherin) and CD31 (PECAM) ([7]; two weeks of stimulation): induced | expression of smooth muscle cell marker SMA ([7]; two weeks of stimulation): did not become SMA positive
